# Measured values as given in US20230044787A1, “TRICYCLE DIHYDROIMIDAZOPYRIMIDONE DERIVATIVE, PREPARATION METHOD THEREOF, PHARMACEUTICAL COMPOSITION AND USE THEREOF” (priority 2019, published 2023).
# Target: T1, Lp-PLA2 (Homo sapiens, UniProt Q13093)
# T1 construct: aliquoted and thawed 40 μL of pooled human plasma was previously added; from tissue; host or cells: pooled human plasma
# T1 sequence (Q13093 22-441): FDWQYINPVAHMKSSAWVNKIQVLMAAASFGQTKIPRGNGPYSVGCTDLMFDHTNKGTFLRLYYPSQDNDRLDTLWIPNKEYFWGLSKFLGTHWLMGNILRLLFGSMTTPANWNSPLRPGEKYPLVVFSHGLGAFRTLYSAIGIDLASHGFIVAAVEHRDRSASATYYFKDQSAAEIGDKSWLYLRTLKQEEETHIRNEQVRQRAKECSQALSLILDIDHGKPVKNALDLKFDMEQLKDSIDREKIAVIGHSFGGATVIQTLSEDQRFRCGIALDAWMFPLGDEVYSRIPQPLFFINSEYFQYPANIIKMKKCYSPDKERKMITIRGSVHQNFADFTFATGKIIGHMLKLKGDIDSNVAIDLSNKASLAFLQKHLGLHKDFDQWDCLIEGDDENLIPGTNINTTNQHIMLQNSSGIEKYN
# Assay: Lipoprotein-associated phospholipase A2 (Lp-PLA2) human plasma assay (Thio-PAF assay)
# Format: biochemical
# Conditions: Lp-PLA2 human plasma assay (Thio-PAF), pooled human plasma, 30-min pre-incubation at room temperature
row,SMILES,IC50
1,N#Cc1cc(F)cc(COc2cc3n(c(=O)n2)CC24CC(F)(CN32)C4)c1 [Example 159],128 nM
2,O=c1nc(OCc2ccc(Oc3ccnc(C(F)F)c3)cc2)cc2n1CC13CC(CN21)C3 [Example 161],18.1 nM
3,O=c1nc(OCc2ccc(Oc3ccnc(C(F)F)c3)c(F)c2)cc2n1CC13CC(CN21)C3 [Example 162],6.5 nM
4,"N#Cc1cc(COc2cc3n(c(=O)n2)CC24CCC(CC2)N34)ccc1F [Example 163, 2-fluoro-5-(((1-oxo-7,8-dihydro-1H,6H,9H-6,8a-ethanopyrrolo[1′,2′:3,4]imidazo[1,2-c]pyrimidin-3-yl)oxy)methyl)benzonitrile]",2.4 nM
5,"O=c1nc(OCc2ccc(Oc3ccnc(C(F)(F)F)c3)c(F)c2)cc2n1CC13CC(CN4CCOCC4)(CN21)C3 [Example 166, 3-((3-fluoro-4-((2-(trifluoromethyl)pyridin-4-yl)oxy)benzyl)oxy)-7-(morpholinomethyl)-7,8-dihydro-1H,6H,9H-7,8a-methanopyrrolo[1′,2′:3,4] imidazo[1,2-c]pyrimidin-1-one]",5.8 nM
6,"CN1C(=O)[C@]23C[C@H]1CN2c1cc(OCc2cc(F)c(Oc4cnn(C)c4)c(F)c2)nc(=O)n1C3 [Example 167, (3S,11aR)-7-((3,5-difluoro-4-((1-methyl-1H-pyrazol-4-yl)oxy)benzyl)oxy)-2-methyl-3,4-dihydro-9H,11H-3,11a-methanopyrazino[1′,2′:3,4] imidazo[1,2-c]pyrimidine-1,9(2H)-dione]",19.4 nM
7,"COc1c(CCc2ccc(Oc3ccnc(C(F)(F)F)c3)cc2)nc(=O)n2c1N1C[C@@H]3C[C@]1(CO3)C2 [Example 170, (3S,11aR)-6-Methoxy-7-(4-((2-(trifluoromethyl)pyridin-4-yl)oxy)phenethyl)-3,4-dihydro-1H,9H,11H-3,11a-methanopyrimido[6′,1′:2,3]imidazo[5,1-c] [1,4]oxazin-9-one]",178 nM

# Further compounds by falling IC50, results first:
row,IC50,SMILES
1,4.9 nM,"O=c1nc(OCCc2cc(F)c(Oc3ccnc(C(F)(F)F)c3)c(F)c2)cc2n1CC13CC(CN21)C3 [Example 169, 3-(3,5-Difluoro-4-((2-(trifluoromethyl)pyridin-4-yl)oxy)phenethoxy)-7,8-dihydro-1H1,6H1,9H-7,8a-methanopyrrolo[1′, 2′:3, 4]imidazo[1,2-c]pyrimidin-1-one]"
2,3.9 nM,"O=c1nc(OCc2ccc(Oc3ccnc(C(F)(F)F)c3)c(F)c2)cc2n1CC13CC(F)(CN21)C3 [Example 157, 7-fluoro-3-((3-fluoro-4-((2-(trifluoromethyl)pyridin-4-yl)oxy)benzyl)oxy)-7,8-dihydro-1H,6H,9H-7,8a-methanopyrrolo[1′,2′:3,4] imidazo[1,2-c]pyrimidin-1-one]"
3,3.8 nM,N#Cc1cc(COc2cc3n(c(=O)n2)CC24CC(F)(CN32)C4)ccc1F [Example 160]
4,3.6 nM,CN1C(=O)[C@]23C[C@H]1CN2c1cc(OCc2ccc(Oc4ccc(Cl)c(C(F)(F)F)c4)c(C#N)c2)nc(=O)n1C3 [Example 168]
5,3.1 nM,"O=c1nc(OCc2ccc(Oc3ccnc(C(F)(F)F)c3)c(F)c2)cc2n1CC13CC(CCN21)C3 [Example 165, 3-((3-fluoro-4-((2-(trifluoromethyl)pyridin-4-yl)oxy)benzyl)oxy)-6,7,8,9-tetrahydro-1H,10H-8,9a-methano-pyrido[1′,2′:3,4] imidazo[1,2-c]pyrimidin-1-one]"
6,2.1 nM,"O=c1nc(OCc2cc(F)c(Oc3ccnc(C(F)(F)F)c3)c(F)c2)cc2n1CC13CC(F)(CN21)C3 [Example 158, 3-((3,5-difluoro-4-((2-(trifluoromethyl)pyridin-4-yl)oxy)benzyl)oxy)-7-fluoro-7,8-dihydro-1H,6H,9H-7,8a-methanopyrrolo[1′,2′:3,4] imidazo[1,2-c]pyrimidine-1-one]"
7,1.5 nM,"O=c1nc(OCc2ccc(Oc3ccnc(C(F)(F)F)c3)c(F)c2)c(C(F)(F)F)c2n1C[C@]13CO[C@H](CN21)C3 [Example 164, (3S,11aR)-7-((3-fluoro-4-((2-(trifluoromethyl)pyridin-4-yl)oxy)benzyl)oxy)-6-(trifluoromethyl)-3,4-dihydro-1H,9H,11H-3,11a-methanopyrimido[6′,1′:2,3] imidazo[5,1-c][1,4]oxazin-9-one]"
